According to PubChem BioAssay AID2060602 (Molecular Pharmacology Branch, DTP, NCI, 2025):
Values joined by “and” are separate entries in the source; they are usually repeats but may differ in a detail not shown here. Equal entries are not always repeated.

Test system: 648629-189-R-J1-PDC complex spheroids viability
Test: Anticancer human tumor 648629-189-R-J1-PDC patient-derived bladder carcinoma cell line growth inhibition [CLK]
Settings: for viability, T/C: stronger effect = lower value
How it was run: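 Multi-cell-type spheroids combined patient-derived tumor cells with HUVEC endothelial cells and human mesenchymal stem cells. Paired agents were dosed in half-log steps down from about clinical Cmax, or from 10 microM where Cmax was unknown.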

[1] = curve of first compound, second compound 0.0316 µM
[2] = curve of first compound, second compound 0.1 µM
[3] = curve of first compound, second compound 0.316 µM
[4] = curve of first compound, second compound 1 µM
[5] = curve of first compound, second compound 3.16 µM
[6] = curve of first compound, second compound 10 µM
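Throughout, for viability, T/C: drug exposure lasted seven days before viability readout; 100% = DMSO vehicle control wells.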

Compound: CC(C)CC(NC(=O)C(Cc1ccccc1)NC(=O)c1cnccn1)B(O)O (stereo unspecified) + CN1CCN(c2cc(C(=O)Nc3cc4cc(-c5cnn(C)c5)ccc4cn3)ccn2)CC1
- IC50 [1]: 4.64 nM
- IC50 [2]: 4.8 nM
- IC50 [3]: < 0.949 nM
- IC50 [4]: < 0.949 nM
- IC50 [5]: < 0.949 nM
- IC50 [6]: < 0.949 nM
- viability, T/C (second compound 0.0316 µM, first compound 0.000949 µM): 116%
- viability, T/C (second compound 0.0316 µM, first compound 0.003 µM): 79.8%
- viability, T/C (second compound 0.0316 µM, first compound 0.00949 µM): 0.91%
- viability, T/C (second compound 0.0316 µM, first compound 0.03 µM): 0.37%
- viability, T/C (second compound 0.0316 µM, first compound 0.0949 µM): 0.28%
- viability, T/C (second compound 0.0316 µM, first compound 0.3 µM): 0.14%
- viability, T/C (second compound 0.1 µM, first compound 0.000949 µM): 94.9%
- viability, T/C (second compound 0.1 µM, first compound 0.003 µM): 82.8%
- viability, T/C (second compound 0.1 µM, first compound 0.00949 µM): 2.63%
- viability, T/C (second compound 0.1 µM, first compound 0.03 µM): 0.49%
- viability, T/C (second compound 0.1 µM, first compound 0.0949 µM): 0.17%
- viability, T/C (second compound 0.1 µM, first compound 0.3 µM): 0.16%
- viability, T/C (second compound 0.316 µM, first compound 0.000949 µM): 41.5%
- viability, T/C (second compound 0.316 µM, first compound 0.003 µM): 18.5%
- viability, T/C (second compound 0.316 µM, first compound 0.00949 µM): 0.32%
- viability, T/C (second compound 0.316 µM, first compound 0.03 µM): 0.16%
- viability, T/C (second compound 0.316 µM, first compound 0.0949 µM): 0.15%
- viability, T/C (second compound 0.316 µM, first compound 0.3 µM): 0.14%
- viability, T/C (second compound 1 µM, first compound 0.000949 µM): 0.66%
- viability, T/C (second compound 1 µM, first compound 0.003 µM): 0.93%
- viability, T/C (second compound 1 µM, first compound 0.00949 µM): 0.16%
- viability, T/C (second compound 1 µM, first compound 0.03 µM): 0.1%
- viability, T/C (second compound 1 µM, first compound 0.0949 µM): 0.17%
- viability, T/C (second compound 1 µM, first compound 0.3 µM): 0.8%
- viability, T/C (second compound 3.16 µM, first compound 0.000949 µM): 0.08%
- viability, T/C (second compound 3.16 µM, first compound 0.003 µM): 2.07%
- viability, T/C (second compound 3.16 µM, first compound 0.00949 µM): 0.1%
- viability, T/C (second compound 3.16 µM, first compound 0.03 µM): 0.08%
- viability, T/C (second compound 3.16 µM, first compound 0.0949 µM): 1.36%
- viability, T/C (second compound 3.16 µM, first compound 0.3 µM): 1.67%
- viability, T/C (second compound 10 µM, first compound 0.000949 µM): 0.06%
- viability, T/C (second compound 10 µM, first compound 0.003 µM): 1.03%
- viability, T/C (second compound 10 µM, first compound 0.00949 µM): 0.12%
- viability, T/C (second compound 10 µM, first compound 0.03 µM): 0.11%
- viability, T/C (second compound 10 µM, first compound 0.0949 µM): 2.27%
- viability, T/C (second compound 10 µM, first compound 0.3 µM): 1.33%

Compound: COC1C=CCC(C)C(C)S(=O)(=O)NC(=O)c2ccc3c(c2)N(CC2CCC21)CC1(CCCc2cc(Cl)ccc21)CO3 (stereo unspecified)
- viability, T/C (compound 0.0316 µM): 102% and 92.4%
- viability, T/C (compound 0.1 µM): 91% and 85%
- viability, T/C (compound 0.316 µM): 77% and 89.5%
- viability, T/C (compound 1 µM): 79% and 77.1%
- viability, T/C (compound 3.16 µM): 25.9% and 15.1%
- viability, T/C (compound 10 µM): 2.88% and 3.41%
- IC50 (curve of compound): 1840 nM and 1650 nM

Compound: CC(Nc1ccc2c(c1)OCCn1cc(N3C(=O)OCC3C(F)F)nc1-2)C(N)=O (stereo unspecified) + CN1CCN(c2cc(C(=O)Nc3cc4cc(-c5cnn(C)c5)ccc4cn3)ccn2)CC1
- IC50 [1]: 8560 nM
- IC50 [2]: 8740 nM
- IC50 [3]: < 31.6 nM
- IC50 [4]: < 31.6 nM
- IC50 [5]: < 31.6 nM
- IC50 [6]: < 31.6 nM
- viability, T/C (second compound 0.0316 µM, first compound 0.0316 µM): 114%
- viability, T/C (second compound 0.0316 µM, first compound 0.1 µM): 111%
- viability, T/C (second compound 0.0316 µM, first compound 0.316 µM): 97.6%
- viability, T/C (second compound 0.0316 µM, first compound 1 µM): 84.2%
- viability, T/C (second compound 0.0316 µM, first compound 3.16 µM): 77.2%
- viability, T/C (second compound 0.0316 µM, first compound 10 µM): 44.8%
- viability, T/C (second compound 0.1 µM, first compound 0.0316 µM): 105%
- viability, T/C (second compound 0.1 µM, first compound 0.1 µM): 100%
- viability, T/C (second compound 0.1 µM, first compound 0.316 µM): 90.2%
- viability, T/C (second compound 0.1 µM, first compound 1 µM): 82.8%
- viability, T/C (second compound 0.1 µM, first compound 3.16 µM): 68.8%
- viability, T/C (second compound 0.1 µM, first compound 10 µM): 46.8%
- viability, T/C (second compound 0.316 µM, first compound 0.0316 µM): 44.5%
- viability, T/C (second compound 0.316 µM, first compound 0.1 µM): 44.2%
- viability, T/C (second compound 0.316 µM, first compound 0.316 µM): 42.5%
- viability, T/C (second compound 0.316 µM, first compound 1 µM): 38.4%
- viability, T/C (second compound 0.316 µM, first compound 3.16 µM): 30.9%
- viability, T/C (second compound 0.316 µM, first compound 10 µM): 28.1%
- viability, T/C (second compound 1 µM, first compound 0.0316 µM): 0.75%
- viability, T/C (second compound 1 µM, first compound 0.1 µM): 0.85%
- viability, T/C (second compound 1 µM, first compound 0.316 µM): 0.93%
- viability, T/C (second compound 1 µM, first compound 1 µM): 1.18%
- viability, T/C (second compound 1 µM, first compound 3.16 µM): 0.5%
- viability, T/C (second compound 1 µM, first compound 10 µM): 0.59%
- viability, T/C (second compound 3.16 µM, first compound 0.0316 µM): 0.08%
- viability, T/C (second compound 3.16 µM, first compound 0.1 µM): 0.14%
- viability, T/C (second compound 3.16 µM, first compound 0.316 µM): 0.16%
- viability, T/C (second compound 3.16 µM, first compound 1 µM): 0.13%
- viability, T/C (second compound 3.16 µM, first compound 3.16 µM): 1.1%
- viability, T/C (second compound 3.16 µM, first compound 10 µM): 0.14%
- viability, T/C (second compound 10 µM, first compound 0.0316 µM): 0.1%
- viability, T/C (second compound 10 µM, first compound 0.1 µM): 0.13%
- viability, T/C (second compound 10 µM, first compound 0.316 µM): 0.17%
- viability, T/C (second compound 10 µM, first compound 1 µM): 0.22%
- viability, T/C (second compound 10 µM, first compound 3.16 µM): 0.22%
- viability, T/C (second compound 10 µM, first compound 10 µM): 0.2%
